Our source for the Selectivity ratio, EC50 and IC50 values is ChEMBL document CHEMBL4000221 (Bioorg Med Chem Lett, 2017).

The species named for assay [1] is Homo sapiens. Nature of the assay: Selectivity ratio of EC50 for inhibition of [3H]-S-citalopram dissociation from SERT allosteric modulator site (S2) (unknown origin) expressed in African green monkey COS1 cell membranes to IC50 for [3H]5-HT uptake by SERT primary site (S1) (unknown origin) expressed in African green monkey COS1 cells. Format: cell-based.
The target in assay [2] is T1, Sodium-dependent serotonin transporter (Homo sapiens, UniProt P31645).
Assay [3] deals with T1, Sodium-dependent serotonin transporter. Nature of the assay: Inhibition of [3H]5-HT uptake by SERT primary site (S1) (unknown origin) expressed in African green monkey COS1 cells after 10 mins by TopCount scintillation counting method. The assay is classed as cell-based.
Assay [4] has the same target. This is another data set of the same source.
Assay [5] shares this target. The source holds these as a separate data set.
The species entered for assay [6] is Homo sapiens. Nature of the assay: Selectivity ratio of EC50 for inhibition of [3H]-S-citalopram dissociation from human SERT allosteric modulator site (S2) expressed in African green monkey COS7 cell membranes to IC50 for displacement of [3H]-S-citalopram from human SERT primary site (S1) expressed in African green monkey COS7 cell membranes.

T1 sequence (P31645 whole entry): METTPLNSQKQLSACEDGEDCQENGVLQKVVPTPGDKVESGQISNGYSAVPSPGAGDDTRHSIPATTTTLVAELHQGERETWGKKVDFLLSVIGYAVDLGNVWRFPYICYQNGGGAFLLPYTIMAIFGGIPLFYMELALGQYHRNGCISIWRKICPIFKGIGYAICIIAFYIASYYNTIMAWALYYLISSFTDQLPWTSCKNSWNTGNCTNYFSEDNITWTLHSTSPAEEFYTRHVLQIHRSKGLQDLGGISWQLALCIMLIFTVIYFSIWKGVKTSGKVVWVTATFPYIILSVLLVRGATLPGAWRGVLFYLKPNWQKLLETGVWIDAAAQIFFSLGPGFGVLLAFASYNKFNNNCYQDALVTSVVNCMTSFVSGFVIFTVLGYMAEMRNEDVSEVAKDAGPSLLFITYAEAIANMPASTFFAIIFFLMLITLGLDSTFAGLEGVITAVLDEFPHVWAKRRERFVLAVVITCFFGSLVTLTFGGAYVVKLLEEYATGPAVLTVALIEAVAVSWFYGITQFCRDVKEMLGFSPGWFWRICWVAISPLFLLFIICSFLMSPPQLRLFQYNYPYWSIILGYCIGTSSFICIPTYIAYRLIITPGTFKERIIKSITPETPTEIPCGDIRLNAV

In the case of `CN(C)CCCC1(c2ccc(F)cc2)OCc2cc3ccccc3cc21` (stereo not drawn), the Selectivity ratio in the assay listed under Homo sapiens [1] came to 12000. The molecule also returned an EC50 in assay [2] of 95000 nM. This molecule also registered an IC50 in assay [3] of 8 nM.

`CN(C)CCCC1(c2cccc3ccccc23)OCc2cc(C#N)ccc21` (single isomer, unassigned; enantiomer 2) [listing 1 of 2 here] gave an EC50 in assay [2] of 19000 nM. This molecule came in with an IC50 in assay [3] of 280 nM.

Turning to `CN(C)CCCC1(c2ccc3ccccc3c2)OCc2cc(C#N)ccc21` (stereo in doubt; 1) [listing 1 of 2 here], the EC50 in assay [2] stood at 68000 nM. Also, the IC50 in assay [3] is 34 nM.

As for `CCCN(C)CCC[C@]1(c2ccc(F)cc2)OCc2cc(C#N)ccc21`, in assay [4], the IC50 was found to be 2400 nM. The same molecule showed an EC50 in assay [5] of 20300 nM. Also, the Selectivity ratio in the assay filed under Homo sapiens [6] was found to be 8.5.

With `CN(C)CCCC1(c2ccc3ccccc3c2)OCc2cc(C#N)ccc21` (stereo in doubt; 1) [listing 2 of 2 here], in the assay filed under Homo sapiens [1], the Selectivity ratio worked out at 2000.

Take `CN(C)CCCC1(c2ccc(F)cc2)OCc2c1ccc1ccccc21` (stereo not drawn): in the assay filed under Homo sapiens [1], the Selectivity ratio was found to be 7800. For the same molecule, in assay [2], the EC50 amounted to 31000 nM. Half-maximal inhibition in assay [3] (IC50) required 4 nM.

With `CCN(C)CCC[C@]1(c2ccc(F)cc2)OCc2cc(C#N)ccc21`, in assay [4], the IC50 came to 2300 nM. For the same molecule, in assay [5], the EC50 is 19900 nM. For the same molecule, the Selectivity ratio in the assay listed under Homo sapiens [6] was 8.7.

`CCCCN(C)CCC[C@@]1(c2ccc(F)cc2)OCc2cc(C#N)ccc21` had an IC50 in assay [4] of 160 nM. Besides, in assay [5], a half-maximal response (EC50) required 2900 nM. Further, the Selectivity ratio in the assay listed under Homo sapiens [6] was determined as 18.

With `CN(C)CCCC1(c2cc(Cl)cc(Cl)c2)OCc2ccccc21` (stereo in doubt; 4) [listing 1 of 2 here], the Selectivity ratio in the assay listed under Homo sapiens [1] turned out to be 44.

As for `CN(C)CCCC1(c2cc(Cl)cc(Cl)c2)OCc2ccccc21` (single isomer, unassigned; enantiomer 1) [listing 1 of 2 here], the EC50 in assay [2] was found to be 8800 nM. The molecule further gave an IC50 in assay [3] of 350 nM.

In assay [2], `CN(C)CCCC1(c2cc(Cl)cc(Cl)c2)OCc2ccccc21` (stereo in doubt; 4) [listing 2 of 2 here] returned an EC50 of 15000 nM. In assay [3], this molecule showed an IC50 of 340 nM.

Consider `CN(C)CCCC1(c2cccc3ccccc23)OCc2cc(C#N)ccc21` (single isomer, unassigned; enantiomer 1) [listing 1 of 2 here], for which the Selectivity ratio in the assay listed under Homo sapiens [1] is 19.

Take `CN(C)CCCC1(c2cc(Cl)cc(Cl)c2)OCc2ccccc21` (single isomer, unassigned; enantiomer 1) [listing 2 of 2 here]: the Selectivity ratio in the assay filed under Homo sapiens [1] stood at 25.

As for `CN(C)CCCC1(c2cccc3ccccc23)OCc2cc(C#N)ccc21` (single isomer, unassigned; enantiomer 2) [listing 2 of 2 here], in the assay listed under Homo sapiens [1], the Selectivity ratio turned out to be 68.

As for `CN(C)CCCC1(c2ccc3ccccc3c2)OCc2cc(C#N)ccc21` (single isomer, unassigned; enantiomer 2) [listing 1 of 2 here], the Selectivity ratio in the assay listed under Homo sapiens [1] was 370.

For `CN(C)CCCC1(c2ccc(Cl)c(Cl)c2)OCc2ccccc21` (stereo not drawn), the Selectivity ratio in the assay filed under Homo sapiens [1] is 2300. In assay [2], this molecule displayed an EC50 of 29600 nM. In assay [3], this molecule showed an IC50 of 13 nM.

Consider `CCCCN(C)CCC[C@]1(c2ccc(F)cc2)OCc2cc(C#N)ccc21`, for which, in assay [4], the IC50 was 1100 nM. In assay [5], the response was half-maximal at 14500 nM (EC50). Also, the Selectivity ratio in the assay filed under Homo sapiens [6] came out at 13.

Regarding `CN(C)CCCC1(c2cccc3ccccc23)OCc2cc(C#N)ccc21` (stereo in doubt; 2) [listing 1 of 2 here], the Selectivity ratio in the assay filed under Homo sapiens [1] was 76.

In turn, `CCCCCN(C)CCC[C@@]1(c2ccc(F)cc2)OCc2cc(C#N)ccc21` came in with an IC50 in assay [4] of 75 nM. Besides, the response in assay [5] was half-maximal at 1600 nM (EC50). Besides, in the assay filed under Homo sapiens [6], the Selectivity ratio came out at 21.

For `CN(C)CCCC1(c2cc(Cl)cc(Cl)c2)OCc2ccccc21` (single isomer, unassigned; enantiomer 2) [listing 1 of 2 here], in assay [2], the EC50 was 20000 nM. The IC50 in assay [3] stood at 300 nM.

For `CN(C)CCCC1(c2ccc3ccccc3c2)OCc2cc(C#N)ccc21` (single isomer, unassigned) [listing 1 of 2 here], the Selectivity ratio in the assay filed under Homo sapiens [1] worked out at 4100.

In assay [4], `CCCN(C)CCC[C@@]1(c2ccc(F)cc2)OCc2cc(C#N)ccc21` had an IC50 of 190 nM. The response in assay [5] was half-maximal at 5900 nM (EC50). In the assay listed under Homo sapiens [6], the Selectivity ratio is 31.

As to `CN(C)CCCC1(c2cc(Cl)cc(Cl)c2)OCc2ccccc21` (single isomer, unassigned; enantiomer 2) [listing 2 of 2 here], the Selectivity ratio in the assay listed under Homo sapiens [1] was 67.

As to `CN(C)CCCC1(c2ccc(F)cc2)OCc2ccc3ccccc3c21` (stereo not drawn), in the assay listed under Homo sapiens [1], the Selectivity ratio was determined as 3200. Besides, in assay [2], the EC50 is 38000 nM. This molecule also came in with an IC50 in assay [3] of 12 nM.

Molecule `CN(C)CCCC1(c2cccc3ccccc23)OCc2cc(C#N)ccc21` (stereo in doubt; 2) [listing 2 of 2 here] came in with an EC50 in assay [2] of 19000 nM. This molecule also registered an IC50 in assay [3] of 250 nM.

Take `CN(C)CCCC1(c2cccc3ccccc23)OCc2cc(C#N)ccc21` (single isomer, unassigned; enantiomer 1) [listing 2 of 2 here]: a half-maximal response in assay [2] (EC50) required 14000 nM. Besides, in assay [3], inhibition was half-maximal at 740 nM (IC50).

Take `CN(C)CCCC(=O)c1ccc2c(c1)COC2(CCCN(C)C)c1ccc(F)cc1` (stereo not drawn): the Selectivity ratio in the assay filed under Homo sapiens [1] is 450000. The molecule also gave an EC50 in assay [2] of 714000 nM. This molecule also registered an IC50 in assay [3] of 1.6 nM.

In the case of `CCN(C)CCC[C@@]1(c2ccc(F)cc2)OCc2cc(C#N)ccc21`, it took 280 nM to reach half-maximal inhibition in assay [4] (IC50). The same molecule gave a 50% effective concentration (EC50) in assay [5] of 7700 nM. In addition, the Selectivity ratio in the assay listed under Homo sapiens [6] is 28.

In turn, `CN(C)CCCC1(c2ccc3ccccc3c2)OCc2cc(C#N)ccc21` (single isomer, unassigned) [listing 2 of 2 here] had an EC50 in assay [2] of 41000 nM. Half-maximal inhibition in assay [3] (IC50) was put at 10 nM.

Regarding `CN(C)CCCC1(c2ccc3ccccc3c2)OCc2cc(C#N)ccc21` (single isomer, unassigned; enantiomer 2) [listing 2 of 2 here], the EC50 in assay [2] came out at 55000 nM. The same molecule displayed an IC50 in assay [3] of 150 nM.
